Key:
FD-MSCs [1] = experiment: PLIN and PPARγ2 immunostaining of differentiated FD-MSC cultures; assay type: cell-based, human; conditions: SB-treated cultures
Procedure: (§1) All assays were performed between 7 and 15 passages. For osteocyte differentiation, mature MSCs were grown in 24 well culture plates to 100% confluency in MesenCult-ACF and induced to differentiate in OsteoLife Complete Osteogenesis Medium (Lifeline Cell Technology) for 21 days prior to staining with Lifeline Alizarin Red Stain to visualize calcium deposition. For chondrocyte differentiation. For beige adipogenic precursor generation, cells were grown in 24 well culture plates to 90% confluence and treated with 5 uM SB413542 (Sigma) and 10 nM human IL-4 (Peprotech) for 2 days. For beige adipogenic induction, adipogenic precursors are differentiated for 3 days with adipogenic medium consisting of T3 (2 nM), insulin (170 nM), rosiglitazone (1 μM), SB413542 (5 uM), IBMX (0.5 mM), dexamethasone (5 μM) and indomethacin (125 μM) in EGM-2 medium (Lonza) supplemented with the BulletKit minus FGF2 (modified from^33). Thereafter, cells are maintained in adipogenic medium without IBMX, dexamethasone and indomethacin. The medium was changed every 3 days and adipocytes were fully differentiated by 9-12 days as determined by lipid accumulation and peak expression of UCP1.
Cell Isolation, Expansion and Differentiation of Interscapular Brown Adipose Tissue Preadipocytes • 1. Prior to adipose cell isolation, warm DMEM, FBS and cell wash buffer to room temperature. • 2. […]

FD-MSCs [2] = experiment: Beige adipogenic precursor markers in FD-MSCs (flow cytometry, immunostaining, qPCR); assay type: cell-based, human; conditions: SB pretreatment 2 days
Procedure: as §1
Cell Isolation, Expansion and Differentiation of Interscapular Brown Adipose Tissue Preadipocytes • 1. Prior to adipose cell isolation, warm DMEM, FBS and cell wash buffer to room temperature. • 2. In a laminar flow cabinet for cell culture, place 5 g of adipose tissue on a 100×20 mm dish. Suspend tissue in 1 mL of Adipose Tissue Dissociation Kit enzyme digest cocktail and finely mince with a razorblade. • 3. Transfer cell suspension slurry to a 5 mL polystyrene round bottom tube and add an additional 1.5 mL of enzyme digest cocktail to tube. • 4. Incubate tube at 37° C. on a rotating nutator for 30 minutes. During incubation period, briefly vortex sample for 5 s in 10-minute intervals. • 5. Transfer cells to a 15 mL tube and add 5 mL of DMEM. Filter cell suspension through a 100 μm strainer into a new 15 mL tube and centrifuge at 300 g for 5 minutes to form a pellet. • 6. Remove supernatant and leave behind […] of DMEM. […]

NC(=O)c1ccc(-c2nc(-c3ccc4c(c3)OCO4)c(-c3ccccn3)[nH]2)cc1 [SB, SB431542]
cells in culture that are mature adipocytes (PLIN and PPARγ2 staining) (FD-MSCs [1]): 87%-88%
cell surface expression of PDGFRα and MSCA1 (FD-MSCs [2]): increased
nuclear accumulation of EBF2 (FD-MSCs [2]): significantly increased
